Data published in patent US20060079568A1, “Inhibition of atherosclerosis by diindolylmethane analogs” (The Texas A&M University System, priority 2004, published 2006).
Entries after “also recorded” stand apart in the source; their conditions may differ.

Key:
ICAM-1 = experiment: TNF-α-induced cell surface expression of ICAM-1 in HUVECs measured by FACS; type: cell-based, human; conditions: then 5 ng/ml TNF-α; for reduction of TNF-α-induced ICAM-1 expression: 10 μmol/L pretreatment 6 hours, vs TNF-α-stimulated control cells; for effect on TNF-α-induced ICAM-1 expression (in words): pretreatment 6 hours (up to 10 μmol/L)
Description: The expression of ICAM-1 on the cell surface was determined in HUVECs cultured in six-well plates pretreated with one of the three different p-substituted phenyl DIM analogs or with vehicle (0.1% DMSO) at the concentrations indicated. Their effects were compared with those of other PPARγ agonists by preincubating HUVECs with ciglitazone (Biomol, Plymouth meeting, Pa.) or 15d-PGJ2 (Calbiochem, San Diego, Calif.) at the same doses.
After 6 hours, cells were incubated with TNF-α (R&D Systems, Minneapolis, Minn.) at a concentration of 5 ng/ml for 12 hours. Cells were then detached with 10 mmol/L EDTA in 0.5% phosphate-buffered saline, collected by centrifugation, and stained for 30 minutes on ice in the dark with R-phycoerythrin-labeled monoclonal antibody against ICAM-1 (CD54) or with the appropriate R-phycoerythrin-labeled isotype IgG (Pharmingen, San Diego, Calif.) as a control.
The fluorescence intensity of 10,000 gated viable cells was analyzed for each sample on a FACSCalibur Flow Cytometer (Becton Dickinson Immunocytometry Systems, San Diego, Calif.) using Cell Quest (Becton Dickinson) acquisition software. All experiments were performed in triplicate.

IL-6 = IL-6 production in supernatants of TNF-α-stimulated HUVECs, ELISA; type: cell-based, human; conditions: for IL-6 level in supernatant after TNF-α stimulation: 10 μmol/L pretreatment 6 hours, then 5 ng/ml TNF-α 6 hours, TNF-α alone 228±12.7, baseline 52.8±7.5; for effect on TNF-α-induced IL-6 production (in words): 10 μmol/L pretreatment, 5 ng/ml TNF-α
Description: (§1) In order to measure chemokine levels in the cell supernatant, HUVECs cultured in 24-well plates were preincubated for 6 hours with one of the three p-substituted phenyl DIM analogs at the concentrations indicated or with vehicle and then stimulated with 5 ng/ml TNF-α. For comparison, HUVECs were also preincubated with ciglitazone or 15d-PGJ2 at the same concentrations and then stimulated with TNF-α at a concentration of 5 ng/ml. Cell culture supernatants were collected 6 and 24 hours after the stimulation for analysis of IL-6 and MCP-1, respectively.
(§2) The levels of IL-6 and MCP-1 were quantified using commercial ELISA kits (BioSource International, Camarillo, Calif.) according to the manufacturer's directions. The minimum detectable concentration of the assay was 2 pg/ml for IL-6 and <20 pg/ml for MCP-1. All experiments were performed in triplicate.
(§3) To determine the effects of the three p-substituted phenyl DIM analogs on TNF-α-induced chemokine production in HUVECs, cells were pretreated for 6 hours with one of the three analogs at the concentrations indicated or with vehicle and then stimulated with 5 ng/ml TNF-α for the indicated time before the chemokine assays were performed.

MCP-1 = MCP-1 production in supernatants of TNF-α-stimulated HUVECs, ELISA; type: cell-based, human; conditions: for MCP-1 level in supernatant after TNF-α stimulation: 10 μmol/L pretreatment 6 hours; for effect on TNF-α-induced MCP-1 production (in words): 10 μmol/L pretreatment, 5 ng/ml TNF-α
Description: as §1, §2, §3

HUVECs = experiment: Treatment of unstimulated HUVECs: apoptosis and baseline ICAM-1 expression; conditions: up to 10 μmol/L, HUVECs without TNF-α (data not shown)
PPAR-γ = biological target: T1, PPAR-γ (Homo sapiens, UniProt P37231); conditions: earlier structure-activity studies [5]; cited from earlier work
T1 sequence (P37231 1-505): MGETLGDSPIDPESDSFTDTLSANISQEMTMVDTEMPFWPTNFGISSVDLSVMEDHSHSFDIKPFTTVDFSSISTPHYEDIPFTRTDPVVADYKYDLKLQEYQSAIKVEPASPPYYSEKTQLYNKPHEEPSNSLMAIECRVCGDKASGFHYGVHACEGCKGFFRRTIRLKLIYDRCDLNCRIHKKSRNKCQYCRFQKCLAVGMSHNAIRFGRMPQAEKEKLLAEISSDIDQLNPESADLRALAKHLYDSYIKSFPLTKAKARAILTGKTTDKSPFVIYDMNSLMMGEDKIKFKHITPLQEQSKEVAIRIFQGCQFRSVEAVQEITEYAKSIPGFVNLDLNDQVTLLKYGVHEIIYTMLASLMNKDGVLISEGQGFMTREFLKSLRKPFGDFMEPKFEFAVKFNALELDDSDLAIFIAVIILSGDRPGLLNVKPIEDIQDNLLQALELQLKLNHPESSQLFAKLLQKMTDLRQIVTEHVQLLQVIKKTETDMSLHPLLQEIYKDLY

[1] = then 5 ng/ml TNF-α 24 hours, TNF-α alone 7.8±0.19, baseline 1.05±0.07

SMILES | reduction of TNF-α-induced ICAM-1 expression (ICAM-1) | effect on TNF-α-induced ICAM-1 expression (in words) (ICAM-1) | IL-6 level in supernatant after TNF-α stimulation (IL-6) | effect on TNF-α-induced IL-6 production (in words) (IL-6) | MCP-1 level in supernatant after TNF-α stimulation (MCP-1; then 5 ng/mL TNF-α, comparison agonists) | effect on TNF-α-induced MCP-1 production (in words) (MCP-1) | change of baseline expression of ICAM-1 (HUVECs) | MCP-1 level in supernatant after TNF-α stimulation (MCP-1; [1]) | PPAR-γ agonist activity (PPAR-γ) | induction of apoptosis (HUVECs)
CCCCC/C=C/C=C1/C(=O)C=C[C@@H]1C/C=C\CCCC(=O)O [15d-PGJ2, 15-deoxy-δ^12,14-prostaglandin J2, reference compound] | 84.4% | significantly inhibited; also recorded: decreased | 29.8 ± 1.6 pg/mL | significantly inhibited | 1.5 ± 0.3 ng/mL | significantly inhibited | did not induce apoptosis or change the baseline expression of ICAM-1 |  |  | 
c1ccc(-c2ccc(C(c3c[nH]c4ccccc34)c3c[nH]c4ccccc34)cc2)cc1 [DIM-C-pPhC6H5, 1,1-bis(3′-indolyl)-1-(p-biphenyl) methane] | 71.3% | inhibited; also recorded: decreased | 143.4 ± 12.2 pg/mL | inhibited |  | inhibited |  | 2.2 ± 0.49 ng/mL | potent; also recorded: active agents | 
Cc1ccc(C(c2c[nH]c3ccccc23)c2c[nH]c3ccccc23)cc1 [DIM-C-pPhCH3] | 32% | lower activity; also recorded: inactive |  | lower activity; also recorded: did not decrease; also recorded: did not significantly inhibit |  | lower activity; also recorded: did not decrease; also recorded: did not affect |  |  | less active; also recorded: low PPAR-γ agonist activity; also recorded: relatively inactive | 
CC1(COc2ccc(CC3SC(=O)NC3=O)cc2)CCCCC1 (stereo not shown) [ciglitazone, reference compound] |  | inactive; also recorded: no inhibitory effect | 207 ± 13 pg/mL | inactive |  | inactive |  |  |  | did not induce apoptosis
CC(C)(C)c1ccc(C(c2c[nH]c3ccccc23)c2c[nH]c3ccccc23)cc1 [DIM-C-pPhtBu, 1,1-bis(3′-indolyl)-1-(p-t-butylphenyl) methane] | 77.5% | inhibited; also recorded: decreased the expression of ICAM-1 in a concentration-dependent manner | 130.3 ± 19.3 pg/mL | inhibited |  | inhibited |  | 3.9 ± 0.41 ng/mL | potent; also recorded: active agents | 
